Counter-ions that a name gives are not always drawn. Like-named read-outs stand apart in the source and are kept apart here.
Legend:
Format in all cases: binding
α2 = α2 cross-reactivity (% inhibition / Ki), Table 1
α1 = α1 cross-reactivity (% inhibition / Ki), Table 1
5-HT1A = molecular target: T1, 5-HT1A (Homo sapiens, UniProt P08908); test: 5-HT1A receptor affinity (Ki), Table 1
T1 sequence (P08908 1-422): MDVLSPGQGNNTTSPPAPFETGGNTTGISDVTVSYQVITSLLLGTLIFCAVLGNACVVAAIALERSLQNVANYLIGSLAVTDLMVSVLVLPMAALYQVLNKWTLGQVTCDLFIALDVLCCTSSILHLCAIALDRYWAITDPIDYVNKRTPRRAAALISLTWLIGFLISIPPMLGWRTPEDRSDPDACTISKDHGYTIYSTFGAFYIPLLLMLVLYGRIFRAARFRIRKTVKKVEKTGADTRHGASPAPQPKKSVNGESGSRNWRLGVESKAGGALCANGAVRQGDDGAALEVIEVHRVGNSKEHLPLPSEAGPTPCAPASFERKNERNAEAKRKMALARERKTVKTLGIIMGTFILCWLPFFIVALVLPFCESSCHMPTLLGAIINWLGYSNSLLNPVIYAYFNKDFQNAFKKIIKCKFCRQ

SMILES	α2 % inhibition (α2)	α1 % inhibition (α1)	Ki (5-HT1A; read-out: 5-HT1A (Ki))	α2 % inhibition (α2; HCl salt)	α1 % inhibition (α1; HCl salt)	Ki (α2)	Ki (5-HT1A; 5-HT1A (Ki))
CN(C)c1cccc(N2CCN(CCCCNS(=O)(=O)CC3CCCCC3)CC2)c1 [C-Cyclohexyl-N-{4-[4-(3-dimethylamino-phenyl)-piperazin-1-yl]-butyl}-methanesulfonamide]	25%	85%	0.11 µM				
CC(=O)Nc1cccc(N2CCN(CCCCNS(=O)(=O)C(C)C)CC2)c1 [N-(3-{4-[4-(Propane-2-sulfonylamino)-butyl]-piperazin-1-yl}-phenyl)-acetamide]	12%	<10%	0.024 µM				
CC(=O)Nc1cccc(N2CCN(CC3CCN(S(=O)(=O)c4ccc(F)cc4)CC3)CC2)c1 [N-(3-{4-[1-(4-Fluoro-benzenesulfonyl)-piperidin-4-ylmethyl]-piperazin-1-yl}-phenyl)-acetamide]	<10%	49%	0.013 µM				
O=S(=O)(c1ccc(F)cc1)N1CCC(CN2CCN(c3ccccn3)CC2)CC1 [1-[1-(4-Fluoro-benzenesulfonyl)-piperidin-4-ylmethyl]-4-pyridin-2-yl-piperazine]	68%	42%	0.021 µM				
Cc1ccc(S(=O)(=O)NCCCCN2CCN(c3cccc(NC(=O)C(C)C)c3)CC2)cc1 [N-(3-{4-[4-(Toluene-4-sulfonylamino)-butyl]-piperazin-1-yl}-phenyl)-isobutyramide]	12%	47%	0.047 µM				
Cc1ccc(S(=O)(=O)NCCCCN2CCN(c3cccc(NC(=O)C4CC4)c3)CC2)cc1 [Cyclopropanecarboxylic acid (3-{4-[4-(toluene-4-sulfonylamino)-butyl]-piperazin-1-yl}-phenyl)-amide]	15%	40%	0.021 µM				
CC(=O)Nc1cccc(N2CCN(CCCCNS(=O)(=O)C3CCCCC3)CC2)c1 [N-{3-[4-(4-Cyclohexanesulfonylamino-butyl)-piperazin-1-yl]-phenyl}-acetamide]	12%	<10%	0.04 µM				
Cc1ccc(S(=O)(=O)NCCCCN2CCN(c3cccc([N+](=O)[O-])c3)CC2)cc1 [4-Methyl-N-{4-[4-(3-nitro-phenyl)-piperazin-1-yl]-butyl}-benzenesulfonamide HCl salt]			0.105 µM	23%	61%		
CC(=O)Nc1cccc(N2CCN(CCCCN(C)S(=O)(=O)CC3CCCCC3)CC2)c1 [N-(3-{4-[4-(Cyclohexylmethanesulfonyl-methyl-amino)-butyl]-piperazin-1-yl}-phenyl)-acetamide]	47%	37%	0.0013 µM			0.616 µM	
Cc1ccc(S(=O)(=O)NCCCCN2CCN(c3ccccc3)CC2)cc1 [4-Methyl-N-[4-(4-phenyl-piperazin-1-yl)-butyl]-benzenesulfonamide]	90%	98%	0.04 µM				
CCC(=O)Nc1cccc(N2CCN(CCCCNS(=O)(=O)c3ccc(C)cc3)CC2)c1 [N-(3-{4-[4-(Toluene-4-sulfonylamino)-butyl]-piperazin-1-yl}-phenyl)-propionamide]	31%	0%	0.213 µM				
CC(=O)Nc1cccc(N2CCN(CCCCNS(=O)(=O)CC3CCCCC3)CC2)c1 [N-{3-[4-(4-Cyclohexylmethanesulfonylamino-butyl)-piperazin-1-yl]-phenyl}-acetamide]	<10%		0.0051 to 0.011 µM				
Cl.O=C(Nc1cccc(N2CCNCC2)c1)C1CC1 [Cyclopropanecarboxylic acid (3-piperazin-1-yl-phenyl)-amide HCl]	14%	0%					0.0046 µM
Cc1ccc(S(=O)(=O)NCCCCN2CCN(c3cccc(NC(=O)C(C)(C)C)c3)CC2)cc1 [2,2-Dimethyl-N-(3-{4-[4-(toluene-4-sulfonylamino)-butyl]-piperazin-1-yl}-phenyl)-propionamide]	11%	0%					
O=C(Nc1cccc(N2CCN(CCCCNS(=O)(=O)CC3CCCCC3)CC2)c1)C1CC1 [Cyclopropanecarboxylic acid {3-[4-(4-cyclohexylmethanesulfonylamino-butyl)-piperazin-1-yl]-phenyl}-amide]	<10%	22%	0.0089 µM				
Cc1ccc(S(=O)(=O)NCCCCN2CCN(c3cccc(NS(C)(=O)=O)c3)CC2)cc1 [N-{4-[4-(3-Methanesulfonylamino-phenyl)-piperazin-1-yl]-butyl}-4-methyl-benzenesulfonamide]	21%	51%	0.046 µM				
CC(=O)Nc1cccc(N2CCNCC2)c1.Cl [N-(3-Piperazin-1-yl-phenyl)-acetamide HCl]	35%	0%					0.0029 µM
Cc1ccc(S(=O)(=O)NCCCCN2CCN(c3cccc(NS(=O)(=O)C(C)C)c3)CC2)cc1 [4-Methyl-N-(4-{4-[3-(propane-2-sulfonylamino)-phenyl]-piperazin-1-yl}-butyl)-benzenesulfonamide]	<10%	15%	0.078 µM				
CC(=O)Nc1cccc(N2CCN(CC3CCN(S(=O)(=O)CC4CCCCC4)CC3)CC2)c1 [N-{3-[4-(1-Cyclohexylmethanesulfonyl-piperidin-4-ylmethyl)-piperazin-1-yl]-phenyl}-acetamide]	<10%	13%	0.01 µM				
CCS(=O)(=O)Nc1cccc(N2CCN(CCCCNS(=O)(=O)c3ccc(C)cc3)CC2)c1 [N-{4-[4-(3-Ethanesulfonylamino-phenyl)-piperazin-1-yl]-butyl}-4-methyl-benzenesulfonamide]	14%	47%	0.141 µM				
Cc1ccc(S(=O)(=O)NCCCCN2CCN(c3cccc([N+](=O)[O-])c3)CC2)cc1 [4-Methyl-N-{4-[4-(3-nitro-phenyl)-piperazin-1-yl]-butyl}-benzenesulfonamide]	14%	56%	0.125 µM				
CCCC(=O)Nc1cccc(N2CCN(CCCCNS(=O)(=O)c3ccc(C)cc3)CC2)c1 [N-(3-{4-[4-(Toluene-4-sulfonylamino)-butyl]-piperazin-1-yl}-phenyl)-butyramide]	12%	12%	0.056 µM				
O=S(=O)(CC1CCCCC1)NCCCCN1CCN(c2ccccn2)CC1 [C-Cyclohexyl-N-[4-(4-pyridin-2-yl-piperazin-1-yl)-butyl]-methanesulfonamide]	51%	81%	0.0065 µM				
CC(=O)Nc1cccc(N2CCN(CCCCNS(=O)(=O)CC(C)C)CC2)c1 [N-(3-{4-[4-(2-Methyl-propane-1-sulfonylamino)-butyl]-piperazin-1-yl}-phenyl)-acetamide]	0%	5%	0.011 µM				
CN(C)c1cccc(N2CCN(CC3CCN(S(=O)(=O)c4ccc(F)cc4)CC3)CC2)c1 [(3-{4-[1-(4-Fluoro-benzenesulfonyl)-piperidin-4-ylmethyl]-piperazin-1-yl}-phenyl)-dimethyl-amine]	0%	74%	0.507 µM				
COc1ccccc1N1CCN(CCCCNS(=O)(=O)CC2CCCCC2)CC1 [C-Cyclohexyl-N-{4-[4-(2-methoxy-phenyl)-piperazin-1-yl]-buty] [C-Cyclohexyl-N-{4-[4-(2-methoxy-phenyl)-piperazin-1-yl]-butyl}-methanesulfonamide]		98%					
CC(=O)Nc1cccc(N2CCN(CC3CCN(S(=O)(=O)C(C)C)CC3)CC2)c1 [N-(3-{4-[1-(Propane-2-sulfonyl)-piperidin-4-ylmethyl]-piperazin-1-yl}-phenyl)-acetamide]	<10%	<10%	0.112 µM				
CC(=O)Nc1cccc(N2CCN(CCCCNS(=O)(=O)c3ccc(F)cc3)CC2)c1 [N-(3-{4-[4-(4-Fluoro-benzenesulfonylamino)-butyl]-piperazin-1-yl}-phenyl)-acetamide]	<10%	39%	0.018 µM				
